Data from PubChem BioAssay (NCI).
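A five-concentration, 48-hour dose response in 96-well plates underlies each endpoint, interpolated linearly between surrounding concentrations. At the GI50, growth is halved. TGI is the concentration that stops growth completely.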

Legend:
Experiment in all cases: DTP human tumour cell line panel, 48 h
786-0 renal = test system: 786-0 renal
A498 renal = test system: A498 renal
A549 NSCLC = test system: A549 NSCLC
ACHN renal = test system: ACHN renal
BT-549 breast = test system: BT-549 breast
CAKI-1 renal = test system: CAKI-1 renal
CCRF-CEM leukemia = test system: CCRF-CEM leukemia
COLO 205 colon = test system: COLO 205 colon
DU-145 prostate = test system: DU-145 prostate
EKVX NSCLC = test system: EKVX NSCLC
HCC-2998 colon = test system: HCC-2998 colon
HCT-116 colon = test system: HCT-116 colon
HCT-15 colon = test system: HCT-15 colon
HL-60(TB) leukemia = test system: HL-60(TB) leukemia
HOP-62 NSCLC = test system: HOP-62 NSCLC
HOP-92 NSCLC = test system: HOP-92 NSCLC
HS 578T breast = test system: HS 578T breast
HT29 colon = test system: HT29 colon
IGROV1 ovarian = test system: IGROV1 ovarian
K-562 leukemia = test system: K-562 leukemia
KM12 colon = test system: KM12 colon
LOX IMVI melanoma = test system: LOX IMVI melanoma
M14 melanoma = test system: M14 melanoma
MALME-3M melanoma = test system: MALME-3M melanoma
MCF7 breast = test system: MCF7 breast
MDA-MB-231 breast = test system: MDA-MB-231 breast
MDA-MB-435 = test system: MDA-MB-435
MDA-MB-468 breast = test system: MDA-MB-468 breast
MOLT-4 leukemia = test system: MOLT-4 leukemia
NCI-H226 lung = test system: NCI-H226 lung
NCI-H23 lung = test system: NCI-H23 lung
NCI-H460 lung = test system: NCI-H460 lung
NCI-H522 lung = test system: NCI-H522 lung
OVCAR-3 ovarian = test system: OVCAR-3 ovarian
OVCAR-4 ovarian = test system: OVCAR-4 ovarian
OVCAR-5 ovarian = test system: OVCAR-5 ovarian
OVCAR-8 ovarian = test system: OVCAR-8 ovarian
PC-3 prostate = test system: PC-3 prostate
RPMI-8226 leukemia = test system: RPMI-8226 leukemia
RXF 393 renal = test system: RXF 393 renal
SF-268 CNS = test system: SF-268 CNS
SF-295 CNS = test system: SF-295 CNS
SF-539 CNS = test system: SF-539 CNS
SK-MEL-2 melanoma = test system: SK-MEL-2 melanoma
SK-MEL-28 melanoma = test system: SK-MEL-28 melanoma
SK-MEL-5 melanoma = test system: SK-MEL-5 melanoma
SK-OV-3 ovarian = test system: SK-OV-3 ovarian
SN12C renal = test system: SN12C renal
SNB-19 CNS = test system: SNB-19 CNS
SNB-75 CNS = test system: SNB-75 CNS
SR leukemia = test system: SR leukemia
SW-620 colon = test system: SW-620 colon
T-47D breast = test system: T-47D breast
TK-10 renal = test system: TK-10 renal
U251 CNS = test system: U251 CNS
UACC-257 melanoma = test system: UACC-257 melanoma
UACC-62 melanoma = test system: UACC-62 melanoma
UO-31 renal = test system: UO-31 renal

Work on `CN1CCN(c2ccc(C(=O)/C=C/c3cc(Br)ccc3F)cc2)CC1` yielded a GI50 (786-0 renal) of 10 µM, a TGI (786-0 renal) of 22.4 µM and a GI50 (A498 renal) of 17 µM. The TGI (A498 renal) was 31.7 µM, the GI50 (A549 NSCLC) was 4.38 µM and the TGI (A549 NSCLC) was 16.5 µM. The GI50 (ACHN renal) was 13.4 µM, the TGI (ACHN renal) was 29.5 µM and the GI50 (BT-549 breast) was 3.58 µM. For the same molecule, the TGI (BT-549 breast) was 12.2 µM, the GI50 (CAKI-1 renal) was 12.1 µM and the TGI (CAKI-1 renal) was 24.6 µM. It also gave a GI50 (CCRF-CEM leukemia) of 3.44 µM, a TGI (CCRF-CEM leukemia) of 15.6 µM and a GI50 (COLO 205 colon) of 11.8 µM. The TGI (COLO 205 colon) was 30.1 µM, the GI50 (DU-145 prostate) was 11.1 µM and the TGI (DU-145 prostate) was 23 µM. The GI50 (EKVX NSCLC) was 13.3 µM, the TGI (EKVX NSCLC) was 26.4 µM and the GI50 (HCC-2998 colon) was 2760 nM. For the same molecule, the TGI (HCC-2998 colon) was 7.91 µM, the GI50 (HCT-116 colon) was 1790 nM and the TGI (HCT-116 colon) was 3.93 µM. For the same molecule, the GI50 (HCT-15 colon) was 3.43 µM, the TGI (HCT-15 colon) was 14.7 µM and the GI50 (HL-60(TB) leukemia) was 2770 nM. For the same molecule, the TGI (HL-60(TB) leukemia) was 14.5 µM, the GI50 (HOP-62 NSCLC) was 16.2 µM and the TGI (HOP-62 NSCLC) was 31.5 µM. It also gave a GI50 (HOP-92 NSCLC) of 6.71 µM, a TGI (HOP-92 NSCLC) of 21.9 µM and a GI50 (HS 578T breast) of 13.3 µM. For the same molecule, the TGI (HS 578T breast) was 38.8 µM, the GI50 (HT29 colon) was 2870 nM and the TGI (HT29 colon) was 10.9 µM. For the same molecule, the GI50 (IGROV1 ovarian) was 12.8 µM, the TGI (IGROV1 ovarian) was 26.6 µM and the GI50 (K-562 leukemia) was 2280 nM. It also gave a TGI (K-562 leukemia) of 11.8 µM, a GI50 (KM12 colon) of 2690 nM and a TGI (KM12 colon) of 9.23 µM. It also gave a GI50 (LOX IMVI melanoma) of 3.2 µM, a TGI (LOX IMVI melanoma) of 12.5 µM and a GI50 (M14 melanoma) of 6.38 µM. The TGI (M14 melanoma) was 19.7 µM, the GI50 (MALME-3M melanoma) was 15.3 µM and the TGI (MALME-3M melanoma) was 29.4 µM. For the same molecule, the GI50 (MCF7 breast) was 2670 nM, the TGI (MCF7 breast) was 11.5 µM and the GI50 (MDA-MB-231 breast) was 13.2 µM. The TGI (MDA-MB-231 breast) was 30 µM, the GI50 (MDA-MB-435) was 3.78 µM and the TGI (MDA-MB-435) was 13.5 µM. It also gave a GI50 (MDA-MB-468 breast) of 2510 nM, a TGI (MDA-MB-468 breast) of 9.77 µM and a GI50 (MOLT-4 leukemia) of 3.69 µM. It also gave a TGI (MOLT-4 leukemia) of 16.8 µM, a GI50 (NCI-H226 lung) of 12.7 µM and a TGI (NCI-H226 lung) of 27.3 µM. For the same molecule, the GI50 (NCI-H23 lung) was 13.5 µM, the TGI (NCI-H23 lung) was 27.3 µM and the GI50 (NCI-H460 lung) was 15.6 µM. For the same molecule, the TGI (NCI-H460 lung) was 31.1 µM, the GI50 (NCI-H522 lung) was 13.5 µM and the TGI (NCI-H522 lung) was 27.1 µM. For the same molecule, the GI50 (OVCAR-3 ovarian) was 5.81 µM, the TGI (OVCAR-3 ovarian) was 18.2 µM and the GI50 (OVCAR-4 ovarian) was 11.3 µM. For the same molecule, the TGI (OVCAR-4 ovarian) was 23.9 µM, the GI50 (OVCAR-5 ovarian) was 18.6 µM and the TGI (OVCAR-5 ovarian) was 35.9 µM. For the same molecule, the GI50 (OVCAR-8 ovarian) was 13.2 µM, the TGI (OVCAR-8 ovarian) was 26 µM and the GI50 (PC-3 prostate) was 6.24 µM. For the same molecule, the TGI (PC-3 prostate) was 21.3 µM, the GI50 (RPMI-8226 leukemia) was 1840 nM and the TGI (RPMI-8226 leukemia) was 6.07 µM. It also gave a GI50 (RXF 393 renal) of 1270 nM, a TGI (RXF 393 renal) of 13.7 µM and a GI50 (SF-268 CNS) of 15.1 µM. The TGI (SF-268 CNS) was 31.6 µM, the GI50 (SF-295 CNS) was 15.2 µM and the TGI (SF-295 CNS) was 28.7 µM. The GI50 (SF-539 CNS) was 7.05 µM, the TGI (SF-539 CNS) was 21.7 µM and the GI50 (SK-MEL-2 melanoma) was 14.5 µM. The TGI (SK-MEL-2 melanoma) was 27.6 µM, the GI50 (SK-MEL-28 melanoma) was 19.7 µM and the TGI (SK-MEL-28 melanoma) was 36.2 µM. It also gave a GI50 (SK-MEL-5 melanoma) of 12.9 µM, a TGI (SK-MEL-5 melanoma) of 25.7 µM and a GI50 (SK-OV-3 ovarian) of 14.7 µM. For the same molecule, the TGI (SK-OV-3 ovarian) was 28.6 µM, the GI50 (SN12C renal) was 11.2 µM and the TGI (SN12C renal) was 27.2 µM. The GI50 (SNB-19 CNS) was 15.1 µM, the TGI (SNB-19 CNS) was 29.5 µM and the GI50 (SNB-75 CNS) was 3.25 µM. It also gave a TGI (SNB-75 CNS) of 16.6 µM, a GI50 (SR leukemia) of 2580 nM and a TGI (SR leukemia) of 10.7 µM. For the same molecule, the GI50 (SW-620 colon) was 3.52 µM, the TGI (SW-620 colon) was 14.2 µM and the GI50 (T-47D breast) was 15 µM. It also gave a TGI (T-47D breast) of 47.3 µM, a GI50 (TK-10 renal) of 15 µM and a TGI (TK-10 renal) of 28.3 µM. It also gave a GI50 (U251 CNS) of 5.91 µM, a TGI (U251 CNS) of 18.9 µM and a GI50 (UACC-257 melanoma) of 15.5 µM. For the same molecule, the TGI (UACC-257 melanoma) was 29.5 µM, the GI50 (UACC-62 melanoma) was 15.1 µM and the TGI (UACC-62 melanoma) was 29.9 µM. For the same molecule, the GI50 (UO-31 renal) was 8.55 µM and the TGI (UO-31 renal) was 21.5 µM.
